Source: PMC6397219, “Rapid one-step ^18F-radiolabeling of biomolecules in aqueous media by organophosphine fluoride acceptors” (Nature Communications, 2019)
Read-outs that look alike come from different tables or passages of the source.

Key:
U87MG gliomablastoma [1] = assay type: in vivo, mouse; details: 60 min dynamic images; n = 3
Protocol: (§1) 37 °C in a humidified atmosphere containing 5% CO 2 in Dulbecco’s Modified Eagle Medium (DMEM, high glucose) supplemented with 10% fetal bovine serum. Each male BALB/ c nude mouse wa s injected subcutane ously in the right foreleg with about 2 × 10^6 U87MG cells. At 4-5 week after inoculation, when the tumors reached about 0.5 cm in diameter, the mice were used for PET/CT imaging studies.
(§2) MicroPET/CT imaging with 18F-DBP OF-c(RGDyk)
(§3) Glioblastoma tumor mice were employed in microPET/CT imaging (n = 3) with 18F-DBPOF-c(RGDyk). Anesthetization was con ducted with 2.5% isoflurane during preparation and 1.5% during scans. 10 min dynamic microPET-CT scans were acquired by an Inveon microPET/CT (Siemens, Germany) 20 min post i.v. injection of 18F-DBPOF-c(RGDyk) (100 µL, 100 µCi). Reconstruction of PET images was performed with 3D OPMAP algorithm.
In order to study the specific tumor uptake, mice were pre-blocked by injection of 10 µmol DBPOF-c(RGDyk) 30 min prior to injection of 18F-DBPOF-c(RGDyk) as the control group. Then 60 min dynamic images were acquired to provide a control group […]
while the average tumor uptake SUV in the blocked mice was only 0.32~1.12. The tumor uptake of unblocked mice is 1. 39~2. 51 times higher than blocked mice . The tumor was clearly observable whereas blocked mice had much less tumor uptake as indicated in Supplementary Figure 13. […]

[2] = Log D of 18F-DBPOF-c(RGDyk), 1-octanol/PBS; assay type: physicochemical; details: shake-flask, pre-saturated 1-octanol/PBS pH 7.4; 2.0 mL each; four tubes; shaken 10 min, centrifuged 5 min; γ counter, decay-corrected
Protocol: = 7.4) system to estimate the hydrophobicity changes between c(RGDyk) and 18F-DBP OF-c(RGDyk) that may influence biological function of c(RGDyk).
1-Octanol (2.0 mL) and phosphate buffer (2.0 mL) were pipetted into four 12 mL test tubes containing […] of radiotracer. The test tubes were stoppered, mechanic ally shaken for 10 min, and centrifuged (5 min). From each tube, approximately 0.5 mL of buffer was transferred into a pre -weighed test tube for counting. The remaining buffer was discarded and approximately 0.5 mL of octanol phase was also transferred int o a separate pre-weighed test tube. The amount of radioactivity in each tube was measured by a γ counter and corrected for decay. Accurate volumes of each counted phase were determined by weight differences and known densities. The partition coefficient was calculated using Supplementary Equation 1:
Log D = Counts/m L in buffer = -0.59 ± 0.09 1 […]
Photosensitizers were added at concentrations 0, 0.01, 0.05, 0.1, 0.5, 1 and 5 mM. The cell cytotoxic effect on the U87MG cells were determined using the CCK8 assay.
After 12 h and 24 h of incubation after the treatment we added 10 µL of CCK8 and incubated the cells for another 1 h at 37 °C and in 5% CO2. The measurement of absorbance was carried out on a 96-well microplate reader Synergy HT at 450 nm. […]

U87MG gliomablastoma [3] = assay type: in vivo, mouse; details: for Tumor-SUVbw: unblocked, mean n=3
Protocol: as §1, §2
as §3, with “algorithm. […]” for “algorithm.”
39~2. 51 times higher than blocked mice . The tumor was clearly observable whereas blocked mice had much less tumor uptake as indicated in Supplementary Figure 13. […]

^18F-DBPOF-c(RGDyk) (head to tail) [18F-labeled peptide ligand, targets the integrin αvβ3 receptor of the U87MG cell]
average tumor uptake SUV in the blocked mice (U87MG gliomablastoma [1]): 0.32~1.12
Log D [2]: -0.59 ± 0.09
Tumor-SUVbw (U87MG gliomablastoma [3]; 21 min): 0.5941
Tumor-SUVbw (U87MG gliomablastoma [3]; 22 min): 0.4485
Tumor-SUVbw (U87MG gliomablastoma [3]; 23 min): 0.7452
Tumor-SUVbw (U87MG gliomablastoma [3]; 24 min): 0.761
Tumor-SUVbw (U87MG gliomablastoma [3]; 25 min): 0.4755
Tumor-SUVbw (U87MG gliomablastoma [3]; 26 min): 0.5271
Tumor-SUVbw (U87MG gliomablastoma [3]; 27 min): 0.4212
Tumor-SUVbw (U87MG gliomablastoma [3]; 28 min): 0.5137
Tumor-SUVbw (U87MG gliomablastoma [3]; 29 min): 0.5036
Tumor-SUVbw (U87MG gliomablastoma [3]; 30 min): 0.6269
uptake, standardized uptake value (SUV) in U87MG gliomablastoma (U87MG gliomablastoma [3]; microPET/CT, 100 µCi i.v., dynamic scan from 20 min post injection): 0.76
target to non-target ratio (U87MG gliomablastoma [3]; microPET/CT, U87MG gliomablastoma): 2.4
